Experimental data taken from US9770436B2, “Polymorphs of azabicyclohexane” (EUTHYMICS BIOSCIENCE, INC., priority 2004, dated 2017).

Assays:
[1] = (+) isomeric form; cited from earlier work
[2] = Informal storage stability of the Example 1 hydrochloride salt (50% by weight mixture of polymorph forms A and B) in desiccators; polymorph content by XRPD and Raman; type: physicochemical; conditions: started as 50% (by weight) A / 50% B, XRPD
Method: The X-ray powder diffraction pattern (XRPD) analyses of polymorph forms A, B and C were performed with a Shimadzu XRD-6000 X-ray powder diffractometer using Cu Ka radiation. In this procedure the compound as a hydrochloride salt was loaded onto the machine as a crystalline powder. The instrument was equipped with a long fine focus X-ray tube. The tube voltage and amperage were set to 40 kV and 40 mA, respectively. The divergence and scattering slits were set at 1° and the receiving slit was set at 0.15 mm. Diffracted radiation was detected by a Nal scintillation detector. A theta-two theta continuous scan at 3°/min (0.4 sec/0.02° step) from 2.5 to 40° 2θ was used. A silicon standard was analyzed to check the instrument alignment. Data were collected and analyzed using XRD-6000 v. 4.1.
Briefly, Raman spectra were obtained using a FT-Raman 960 (or 860) spectrometer (Thermo Nicolet) interfaced to an 860 FT-IR. This spectrometer uses an excitation wavelength of 1064 nm. Approximately 0.912 W of Nd:YV04 laser power was used to irradiate the samples. The Raman spectra were measured with an indium gallium arsenide (InGaAs) detector. The samples were pressed into pellets for analysis. A total of 128 sample scans were collected from 3600 or 3700-98 cm^−1 at a spectral resolution of about (±) 4 cm^−1, using Happ-Genzel apodization. Wavelength calibration was performed using sulfur and cyclohexane. The Raman spectra peak positions given below in wavenumbers (cm^−1) for the purified polymorph forms A, B and C of the hydrochloride salt of (+)-1-(3,4-dichlorophenyl)-3-azabicyclo[3.1.0]hexane are subject to an error of about (±) 4 cm^−1.
Duplicate samples of the hydrochloride salt of (+)-1-(3,4dichlorophenyl)-3-azabicyclo[3.1.0] hexane produced in Example 1 and containing a 50% (by weight) mixture of polymorph form A and polymorph form B were placed on informal stability to test storage in desiccators placed at ambient temperature and at 50° C. in a programmable heating bloc.

[3] = Thermodynamic stability of the crystalline polymorph forms; type: physicochemical; conditions: pure crystalline structure, acid addition salt
[4] = 50° C. programmable heating block, after 17 days of storage
[5] = desiccator, ambient temperature, after 1 week, confirmed by Raman

## Clc1ccc(C23CNCC2C3)cc1Cl (single isomer, unassigned; (+)) [compound of formula I, (+)-1-(3,4-dichlorophenyl)-3-azabicyclo[3.1.0]hexane]
[1]
  anti-depressive activity: potent anti-depressive activity

## Cl.Clc1ccc(C23CNCC2C3)cc1Cl (stereo not drawn) [Example 1, hydrochloride salt of (+)-1-(3,4dichlorophenyl)-3-azabicyclo[3.1.0] hexane]
[2]; [4]
  content of polymorph form A after storage: about 50 % (by weight)
  content of polymorph form C after storage: 50 % (by weight)
[2]; [5]
  content of polymorph form A after storage: 40 % (by weight)
  content of polymorph form B after storage: 60 % (by weight)

## Cl.Clc1ccc(C23CNCC2C3)cc1Cl (stereo not drawn) [polymorph form A, hydrochloride salt of (+)-1-(3,4-dichlorophenyl)-3-azabicyclo[3.1.0]hexane]
[3]
  thermodynamic stability of the polymorph form: thermodynamically stable
